Laboratory results taken from patent US20100184759A1, “PYRANO-PYRAZOLE-AMINES” (priority 2007, published 2010).

Experiments:
[1] = biological target: T1, σ2-receptor (Rattus norvegicus, UniProt Q5U3Y7); assay: Sigma 2 (Version B) receptor binding, [3H]-ditolylguanidine, rat liver preparation; conditions: for Ki: radioligand [3H]-ditolylguanidine 3 nM, σ1 sites masked with (+)-pentazocine; for inhibition at 1 µM: compound at 1 μM, value in square brackets
T1 construct: the σ2-Receptorpreparation was prepared from rat liver; from tissue; host or cells: rat liver membrane homogenate
T1 sequence (Q5U3Y7 1-176): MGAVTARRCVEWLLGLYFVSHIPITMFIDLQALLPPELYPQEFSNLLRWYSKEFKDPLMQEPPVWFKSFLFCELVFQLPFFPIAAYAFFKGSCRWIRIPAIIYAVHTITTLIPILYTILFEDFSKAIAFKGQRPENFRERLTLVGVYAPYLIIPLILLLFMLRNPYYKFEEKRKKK
Experimental: In brief the σ2-Receptorpreparation was prepared from rat liver. The livers were homogenized in 5 to 6 times of volume sucrose solution (0.32M) and homogenized. The homogenate was centrifuged at 2900 rpm, 4° C., 10 min). the supernatant was centrifuged again (31000×g, 4° C., 20 min). The pellet was resuspended in TRIS-buffer, incubated for 30 min at room temperature while stirring and centrifuged f (31000×g, 4° C., 20 min). The pellet was resuspended in cold TRIS-buffer pH 8 and homogenized. Then the protein content was measured (approx. 2 mg/mL) and the homogenate frozen at −80° C. for later use.
The radioligand used was [^3H]-Ditolylguanidin in TRIS-buffer pH 8. The σ1-receptor binding sites were masked through (+)-Pentazocin-solution in TRIS-Puffer pH 8.
In a volume of 200 μL 50 μL compound solution of varying concentration, 50 μL (+)-Pentazocin-solution (2 nM; resulting in 500 nM in the assay), 50 μL radioligand-solution (12 nM; resulting in 3 nM in the assay) and finally 50 μL of receptor preparation (approx. 2 mg/mL) were given into a well of a microplate equipped with a filter. The plate was closed and stirred for 2 h at room temperature and 500 rpm. Following that the solvents were removed by a harvester through the filter. After rinsing with H2O the filter was measured in a scintillation counter ([^3H]-protocol).

[2] = biological target: T2, σ1-receptor (Cavia porcellus, UniProt Q60492); assay: Sigma 1 (Version B) receptor binding, [3H]-(+)-pentazocine, guinea pig brain preparation; conditions: radioligand [3H]-(+)-pentazocine 2 nM
T2 construct: the σ1-receptor preparation was prepared from guinea pig brain; from tissue; host or cells: guinea pig brain membrane homogenate
Experimental: In brief the σ1-receptor preparation was prepared from guinea pig brain. The brains were homogenized in 5 to 6 times of volume sucrose solution (0.32M) and homogenized. The homogenate was centrifuged at 2900 rpm, 4° C., 10 min). the supernatant was centrifuged again (23500×g, 4° C., 20 min). The pellet was resuspended in Tris-buffer, incubated for 30 min at room temperature and centrifuged f (23500×g, 4° C., 20 min). The pellet was resuspended in cold TRIS-buffer and homogenized. Then the protein content was measured (approx. 1.5 mg/mL) and the homogenate frozen at −80° C. for later use.
The radioligand used was [^3H]-(+)-Pentazocin in TRIS-buffer. In a volume of 200 μL 50 μL TRIS-buffer, 50 μL compound solution of varying concentration, 50 μL radioligand-solution (8 nM; resulting in 2 nM in the assay) and finally 50 μL of receptor preparation (approx. 1.5 mg/mL) were given into a well of a microplate equipped with a filter. The plate was closed and stirred for 2.5 h at 37° C. and 500 rpm. Following that the solvents were removed by a harvester through the filter. After rinsing with H2O the filter was measured in a scintillation counter ([^3H]-protocol).

T2 sequence (Q60492 whole entry): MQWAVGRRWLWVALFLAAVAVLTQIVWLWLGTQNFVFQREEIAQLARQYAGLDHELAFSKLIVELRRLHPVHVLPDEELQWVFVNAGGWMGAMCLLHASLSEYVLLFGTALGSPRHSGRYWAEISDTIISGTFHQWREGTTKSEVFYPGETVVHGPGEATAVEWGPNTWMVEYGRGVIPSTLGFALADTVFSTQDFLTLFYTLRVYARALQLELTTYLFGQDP

Row | Ki [1] [nM] | Ki [2] [nM] | melting point [°C] | inhibition at 1 µM [1] [%] | Structure (SMILES)
1 | 453 | 10.5 ± 1.16 | 91 | – | c1ccc(-n2ncc3c2CCOC3CN2CCCCC2)cc1 (stereo not shown) [Example 1, 1-Phenyl-4-(piperidin-1-ylmethyl)-1,4,6,7-tetrahydro-pyrano[4,3-c]pyrazole]
2 | 8.3 ± 2.66 | 1.6 ± 0.41 | – | – | c1ccc(C2CCN(CC3OCCc4c3cnn4-c3ccccc3)CC2)cc1 (stereo not shown) [Example 2, 1-Phenyl-4-(4-phenylpiperidin-1-ylmethyl)-1,4,6,7-tetrahydropyrano[4,3-c]pyrazole]
3 | – | 169 ± 39.6 | 115 | 5 | c1ccc(-n2ncc3c2CCOC3CN2CCOCC2)cc1 (stereo not shown) [Example 3, 4-(Morpholin-4-ylmethyl)-1-phenyl-1,4,6,7-tetrahydro-pyrano[4,3-c]pyrazole]
4 | 210 ± 54.2 | 42.3 ± 3.32 | 151 | – | c1ccc(N2CCN(CC3OCCc4c3cnn4-c3ccccc3)CC2)cc1 (stereo not shown) [Example 4, 1-Phenyl-4-(4-phenylpiperazin-1-ylmethyl)-1,4,6,7-tetrahydropyrano[4,3-c]pyrazole]
5 | – | 219 ± 7.22 | 66 | 13 | CN1CCN(CC2OCCc3c2cnn3-c2ccccc2)CC1 (stereo not shown) [Example 5, 4-(4-Methylpiperazin-1-ylmethyl)-1-phenyl-1,4,6,7-tetrahydropyrano[4,3-c]pyrazole]
6 | 322 | 59.3 ± 11.2 | 89 | – | c1ccc(-n2ncc3c2CCOC3CN2CCCC2)cc1 (stereo not shown) [Example 6, 1-Phenyl-4-(pyrrolidin-1-ylmethyl)-1,4,6,7-tetrahydro-pyrano[4,3-c]pyrazole]
7 | – | 1380 | 103 | 12 | CN(C)CC1OCCc2c1cnn2-c1ccccc1 (stereo not shown) [Example 7, N,N-Dimethyl-1-(1-phenyl-1,4,6,7-tetrahydropyrano[4,3-c]pyrazole-4-yl)methanamine]
8 | 536 | 2.98 ± 0.72 | – | – | c1ccc(-n2ncc3c2CCOC3CCN2CCCCC2)cc1 (stereo not shown) [Example 8, 1-Phenyl-4-(2-piperidin-1-yl-ethyl)-1,4,6,7-tetrahydro-pyrano[4,3-c]pyrazole]
9 | 15.1 ± 2.98 | 0.988 ± 0.07 | – | – | c1ccc(C2CCN(CCC3OCCc4c3cnn4-c3ccccc3)CC2)cc1 (stereo not shown) [Example 9, 1-Phenyl-4-[2-(4-phenyl-piperidin-1-yl)-ethyl]-1,4,6,7-tetrahydro-pyrano[4,3-c]pyrazole]
10 | 431 | 2.94 ± 0.43 | – | – | c1ccc(N2CCN(CCC3OCCc4c3cnn4-c3ccccc3)CC2)cc1 (stereo not shown) [Example 11, 1-Phenyl-4-[2-(4-phenyl-piperazin-1-yl)-ethyl]-1,4,6,7-tetrahydro-pyrano[4,3-c]pyrazole]
11 | 1280 | 24 ± 2 | – | – | CN(C)CCC1OCCc2c1cnn2-c1ccccc1 (stereo not shown) [Example 14, Dimethyl-[2-(1-phenyl-1,4,6,7-tetrahydro-pyrano[4,3-c]pyrazol-4-yl)-ethyl]-amine]
